Laboratory results reported in EP4748833A1, “AMPK AGONIST AND USE THEREOF” (priority 2023, dated 2025).
Where two headings read alike, the source gives them in different places.

Target: T1, AMPKα1β1γ1 (Homo sapiens, UniProt Q13131+Q9Y478)
T1 construct: purchased CARNA 02-113
Assay: In vitro assay for AMPK (α1β1γ1) enzyme agonist activity (TR-FRET)
Type: biochemical
Details: for Emax: 1 h, read-out: Top value
Procedure: Test compounds were dissolved in DMSO to prepare 10 mM stock solution, which was then diluted to the predetermined test concentrations using kinase buffer (50 mM HEPES, 1 mM EDTA, 10 mM MgCl2, 0.01% Brij-35, pH = 7.5). Into a 384-well plate were added 5 µL of AMPKα1β1γ1 (CARNA, 02-113), 2.5 µL of the diluted test compound solution, and 2.5 µL of a mixture of Ulight-CRBN and ATP, resulting in the following final concentrations: AMPKα1β1γ1 at 1.6 mg/L, Ulight-CRBN at 5 nM, and ATP at 0.1 mM. The components were mixed evenly, and reacted at room temperature for 1 hour. Subsequently, 5 µL of LANCE Detection Buffer (CR97-100, PerkinElmer) containing 40 mM EDTA was added. After standing for 5 minutes, 5 µL of 4× Eu-anti-phospho-CREB Antibody (TRF0200-M, PerkinElmer) was added, and the mixture was allowed to stand at room temperature for 1 h. The values of samples in each well were read using a microplate reader in TR-FRET mode (excitation wavelength: 320 nm; emission wavelengths: 665 nm and 615 nm). By comparing the values with those of the blank control group (1% DMSO) and the positive control group (1 µM A769662), the relative activity of AMPKα1β1γ1 at each test compound concentration (4.57 nM, 13.72 nM, 41.15 nM, 123.46 nM, 370.37 nM, 1111.11 nM, 3333.33 nM, and 10000 nM) was calculated, with the activity of 1 µM A769662 set as 100%. The data were analysed in GraphPad Prism 9 using a Dose-response-Stimulation four-parameter regression model to obtain the Top and EC50 values for the test compounds. [drawing 522] has a structure of A769662.

[1] = AMPKα1β1γ1 1.6 mg/L, ATP 0.1 mM, 1 hour at room temperature, four-parameter regression, read-out: EC50

T1 sequence (Q13131 whole entry): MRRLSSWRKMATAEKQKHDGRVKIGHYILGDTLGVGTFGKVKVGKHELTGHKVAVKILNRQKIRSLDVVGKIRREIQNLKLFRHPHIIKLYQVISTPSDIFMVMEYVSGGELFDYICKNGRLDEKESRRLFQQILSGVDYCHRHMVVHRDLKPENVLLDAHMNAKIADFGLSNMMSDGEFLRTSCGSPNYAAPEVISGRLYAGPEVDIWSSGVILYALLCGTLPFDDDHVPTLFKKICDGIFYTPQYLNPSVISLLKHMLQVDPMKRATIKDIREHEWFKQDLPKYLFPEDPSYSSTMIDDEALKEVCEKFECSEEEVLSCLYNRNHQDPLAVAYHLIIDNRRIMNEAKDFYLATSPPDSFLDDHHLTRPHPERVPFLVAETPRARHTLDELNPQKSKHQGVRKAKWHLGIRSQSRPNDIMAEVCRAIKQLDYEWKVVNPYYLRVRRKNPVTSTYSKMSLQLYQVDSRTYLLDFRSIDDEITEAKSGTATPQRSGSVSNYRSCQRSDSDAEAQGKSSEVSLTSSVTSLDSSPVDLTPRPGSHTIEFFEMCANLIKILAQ
T1 sequence (Q9Y478 whole entry): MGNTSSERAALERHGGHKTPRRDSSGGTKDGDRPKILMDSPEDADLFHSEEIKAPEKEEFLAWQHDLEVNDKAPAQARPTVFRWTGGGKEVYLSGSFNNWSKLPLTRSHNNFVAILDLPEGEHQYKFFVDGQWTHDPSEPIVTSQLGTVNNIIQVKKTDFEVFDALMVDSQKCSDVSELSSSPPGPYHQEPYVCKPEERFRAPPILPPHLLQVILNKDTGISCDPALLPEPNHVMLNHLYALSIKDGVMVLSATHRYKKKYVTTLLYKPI
T1 sequence (P54619 whole entry partner): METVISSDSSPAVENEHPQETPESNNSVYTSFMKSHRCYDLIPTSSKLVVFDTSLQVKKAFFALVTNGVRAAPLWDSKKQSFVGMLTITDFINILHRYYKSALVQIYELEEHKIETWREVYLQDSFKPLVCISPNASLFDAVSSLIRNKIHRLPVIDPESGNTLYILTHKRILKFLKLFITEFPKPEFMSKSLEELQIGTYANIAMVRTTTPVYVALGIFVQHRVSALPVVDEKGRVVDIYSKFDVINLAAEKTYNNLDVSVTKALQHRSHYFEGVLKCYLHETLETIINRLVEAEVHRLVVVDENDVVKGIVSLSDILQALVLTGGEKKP

Compound	Emax [%]	EC50 [1] [nM]	EC50 [nM]
O=C(NCc1ccco1)c1c[nH]c2cc(Cl)c(-c3ccc(C4(CO)CC4)cc3)cc12 [Compound 14]	> 100	> 800	
O=C(NCc1nnn[nH]1)c1c[nH]c2cc(Cl)c(-c3ccc(C4(CO)CC4)cc3)cc12 [Compound 35]	> 100	< 200	
O=C(O)C(=O)c1c[nH]c2cc(Cl)c(-c3ccc(C4(O)CCC4)cc3)nc12 [Compound 3]	50 to 70	> 800	
O=C(NCc1ccco1)c1c(O)[nH]c2cc(Cl)c(-c3ccc(-c4ccccc4O)cc3)cc12 [Compound 37]	> 100	200 to 800	
Cn1ccc2cc(-c3cc4c(C(=O)C(=O)O)c[nH]c4cc3Cl)ccc21 [Compound 5]	70 to 100	< 200	
O=C(NCC1COC1)c1c[nH]c2cc(Cl)c(-c3ccc(C4(O)CCC4)cc3)cc12 [Compound 10]	50 to 70	> 800	
Cn1ccc2cc(-c3cc4c(cc3Cl)NC(=O)C4(C)C(=O)NCc3ccco3)ccc21 (centres unmarked) [Compound 22]		> 800	
O=C(Nc1ncc[nH]1)c1c[nH]c2cc(Cl)c(-c3ccc(-c4ccccc4)cc3)cc12 [Compound 13]	> 100	> 800	
O=C(Nc1ncco1)c1c[nH]c2cc(Cl)c(-c3ccc(-c4ccccc4)cc3)cc12 [Compound 24]	> 100		> 800
CN(Cc1cccs1)C(=O)c1c[nH]c2cc(Cl)c(-c3ccc(C4(CO)CC4)cc3)cc12 [Compound 25]	< 50		> 800
O=C(O)C(=O)c1c[nH]c2cc(Cl)c(-c3ccc(C4(O)CCC4)cc3)cc12 [Compound 2]	70 to 100	< 200	
COC(=O)C(=O)c1c[nH]c2cc(Cl)c(-c3ccc(C4(CO)CC4)cc3)cc12 [Compound 17]	70 to 100	< 200	
CN(C(=O)c1c[nH]c2cc(Cl)c(-c3ccc(C4(CO)CC4)cc3)cc12)c1cc[nH]n1 [Compound 27]	> 100		> 800
O=C(Nc1ccn[nH]1)c1c[nH]c2cc(Cl)c(-c3ccc(C4(CO)CC4)cc3)cc12 [Compound 23]	> 100	< 200	
O=C(NCc1cnoc1)c1c[nH]c2cc(Cl)c(-c3ccc(C4(O)CCC4)cc3)cc12 [Compound 12]	> 100	> 800	
O=C(NCc1ccno1)c1c[nH]c2cc(Cl)c(-c3ccc(C4(O)CCC4)cc3)cc12 [Compound 11]	70 to 100	200 to 800	
O=C(O)C(=O)c1c[nH]c2cc(Cl)c(-c3ccc(C4(CO)CC4)cc3)cc12 [Compound 6]	> 100	< 200	

Compound	Emax [%]	EC50 [1] [nM]	EC50 [nM]
O=C1Nc2cc(Cl)c(-c3ccc(C4(CO)CC4)cc3)cc2C1=CNCc1ccco1 [Compound 21]	< 50	> 800	
O=C(NCc1ccco1)c1c(O)[nH]c2cc(Cl)c(-c3ccc(C4(CO)CC4)cc3)cc12 [Compound 31]	> 100	200 to 800	
O=C(NCc1ncco1)c1c[nH]c2cc(Cl)c(-c3ccc(C4(CO)CC4)cc3)cc12 [Compound 16]	70 to 100	200 to 800	
O=C(NCc1ccccn1)c1c[nH]c2cc(Cl)c(-c3ccc(C4(O)CCC4)cc3)cc12 [Compound 9]	> 100	> 800	
O=C(O)Cc1c[nH]c2cc(Cl)c(-c3ccc(C4(O)CCC4)cc3)nc12 [Compound 1]	50 to 70	> 800	
O=C(NCc1ccco1)c1c[nH]c2cc(Cl)c(-c3ccc(-c4ccccc4O)cc3)cc12 [Compound 36]	50 to 70	< 200	
O=C(Nc1cc[nH]n1)c1c[nH]c2cc(Cl)c(-c3ccc(C4(O)CCC4)cc3)cc12 [Compound 33]	> 100	200 to 800	
Cn1ccc2cc(-c3cc4c(C(=O)NCc5ncco5)c(O)[nH]c4cc3Cl)ccc21 [Compound 32]	70 to 100	200 to 800	
O=C(O)C(=O)c1c[nH]c2cc(Cl)c(-c3ccc(-c4ccccc4O)cc3)cc12 [Compound 4]	50 to 70	< 200	
O=C(Nc1cc[nH]n1)c1c[nH]c2cc(Cl)c(-c3ccc(-c4ccccc4O)cc3)cc12 [Compound 34]	> 100		200 to 800
COc1ccc(-c2cc3c(C(=O)C(=O)O)c[nH]c3cc2Cl)cc1 [Compound 7]	70 to 100	200 to 800	
O=C(NCc1cccs1)c1c[nH]c2cc(Cl)c(-c3ccc(C4(CO)CC4)cc3)cc12 [Compound 15]	> 100	> 800	
Cn1ccc2cc(-c3cc4c(C(=O)NCc5ccco5)c(O)[nH]c4cc3Cl)ccc21 [Compound 19]	> 100	200 to 800	
O=C(O)C(=O)c1c[nH]c2cc(Cl)c(-c3ccc(-c4ccccc4)cc3)cc12 [Compound 8]	< 50	< 200	
CNC(=O)C(=O)c1c[nH]c2cc(Cl)c(-c3ccc(C4(CO)CC4)cc3)cc12 [Compound 18]	50 to 70	200 to 800	
Cn1ccc2cc(-c3cc4c(C(=O)NCC(=O)O)c(O)[nH]c4cc3Cl)ccc21 [Compound 20]	> 100	200 to 800	
